Target: Tyrosine-protein kinase SYK (Homo sapiens) (UniProt P43405)
Assay: Inhibition of human recombinant SYK by radiometric kinase assay

Work on `CN1CCN(c2ccc(Nc3ncc4nc(Nc5ccccc5)n(C5CCCC5)c4n3)cc2)CC1` yielded an IC50 of 720 nM.
